Source: patent publication US20240285555A1, “COMPOSITIONS FOR THE TREATMENT OF COPPER DEFICIENCY AND METHODS OF USE” (priority 2018, published 2024)

Key:
Yeast coa6Δ cells = test: Rescue of respiratory growth of yeast coa6Δ cells in YPGE medium (cell density at 600 nm); assay type: cell-based, Saccharomyces cerevisiae
Protocol: FIG. 1 illustrates determination of the median effective dose (ED50) of elesclomol. Yeast coa6Δ cells were cultured in YPGE medium at 37° C. in the presence of increasing concentrations (0.01 nM to 1 μM) of elesclomol (ES). The cell density was measured spectrophotometrically after 58 hours of growth at 600 nm. The data represent the average±SD from three independent measurements.
FIGS. 3A and 3B illustrates elesclomol rescue of respiratory growth of coa6Δ cells is dependent on copper availability. BY4741 WT, FIG. 3A, and coa6Δ, FIG. 3B, cells were cultured in YPGE medium at 37° C. in the presence of 10 nM ES, 20 μM of the copper chelator bathocuproine disulfonic acid (BCS), or a combination of both. The cell density was measured spectrophotoretrically at the indicated time points at 600 nm. The data are representative of two independent experiments.
(§1) Yeast Strains and Culture Conditions. The authenticity of yeast strains was confirmed by PCR as well as by replica plating on dropout plates. Yeast cells were cultured in standard YP growth media including YPD (1% yeast extract, 2% peptone and 2% glucose), YPGal (2% galactose), YPGE (3% glycerol+1% ethanol), or synthetic media (SC glucose). For qualitative growth measurement, 10-fold serial dilutions of overnight cultures were spotted on YPD or YPGE plates and incubated at 30° C. and 37° C. for the indicated period. Growth in liquid media was measured spectrophotometrically at 600 nm.
A number of copper-binding pharmacological agents were tested for their ability to rescue respiratory deficient growth of coa6Δ cells. […] ES rescued the respiratory growth of coa6Δ cells with an ED50 of 0.8 nM (FIG. 1). ES-mediated growth rescue of coa6Δ cells was also observed on solid growth medium containing a non-fermentable carbon. […] To determine the biochemical basis for the observed respiratory rescue of coa6Δ cells, the assembly and activity of CcO-containing mitochondrial respiratory chain supercomplexes was measured by native-polyacrylamide gel electrophoresis blotting and in-gel activity assay, respectively. […]

[1] = tested on: yeast coa6Δ cells expressing patient mutations (W26C, W33R and E54X); test: Rescue of yeast coa6Δ cells expressing yeast-human chimeric COA6 with patient mutations; assay type: cell-based, Saccharomyces cerevisiae; conditions: 10 nM ES
Description: Reagents. All the copper binding compounds were purchased from Sigma-Aldrich, except Elesclomol (ES), which was purchased from Selleckchem. The yeast-human hybrid (hyCOA6) gene construct was codon optimized for yeast and synthesized using GENEART® Gene Synthesis (Life Technologies). The hybrid gene hyCOA6 was cloned into pRS416 plasmid under the control of the yeast Coa6 native promoter. COA6 patient mutations were introduced by site-directed-mutagenesis (Agilent Technologies QuikChange Lightning) using hyCOA6 as a template. All the constructs were sequenced verified.
as §1, with “For qualitative growth measurement, 10-fold serial dilutions of overnight cultures were spotted on YPD or YPGE plates and incubated at 30° C. and 37° C. for the indicated period.” left out
A number of copper-binding pharmacological agents were tested for their ability to rescue respiratory deficient growth of coa6Δ cells. […] To determine the biochemical basis for the observed respiratory rescue of coa6Δ cells, the assembly and activity of CcO-containing mitochondrial respiratory chain supercomplexes was measured by native-polyacrylamide gel electrophoresis blotting and in-gel activity assay, respectively. […]

ctr1Δ cells = test: Respiratory growth rescue of ctr1Δ yeast; assay type: cell-based, Saccharomyces cerevisiae; conditions: non-fermentable media, 37° C.
Protocol: as §1
(§2) ES Rescues Many Different Yeast Mutants with Impaired Copper Metabolism. To test the specificity of ES mediated rescue, a number of yeast mutants of genes required for maintaining cellular and mitochondrial copper homeostasis were shortlisted. Genes were prioritized based on their evolutionary conservation, presence of pathogenic mutations in humans, and/or the existence of a related mouse phenotype (Table 3, shown below). […] Most of the yeast mutants were rescued with ES supplementation, albeit to different degrees, reflecting their distinct roles in cellular and mitochondrial copper homeostasis.

yeast ccc2Δ = test: Respiratory growth rescue of ccc2Δ yeast; assay type: cell-based, Saccharomyces cerevisiae; conditions: non-fermentable media, 37° C.
Protocol: as §1
as §2, with “homeostasis. […]” for “homeostasis.”

[2] = multiple human clinical trials; cited from earlier work

SMILES: CN(NC(=O)CC(=O)NN(C)C(=S)c1ccccc1)C(=S)c1ccccc1 [ES, elesclomol]
- ES mediated rescue in the presence of BCS (Yeast coa6Δ cells; 10 nM ES with 20 μM BCS): diminished
- potency relative to copper in rescuing the respiratory growth defect (Yeast coa6Δ cells; ES versus copper): at least 1000 times
- EC50 (Yeast coa6Δ cells; Saccharomyces cerevisiae, YPGE medium, 37° C., 0.01 nM to 1 μM ES, cell density at 600 nm after 58 hours, read-out: ED50 of rescue of respiratory growth): 800 pM
- rescue of respiratory growth [1]: rescued
- rescue of respiratory growth (ctr1Δ cells): higher concentration of ES is required to rescue
- rescue of respiratory growth (yeast ccc2Δ): rescue
- toxicity profile [2]: favorable toxicity profile
